# Experimental data taken from patent US11299485B2, “Thiophene derivative and use thereof” (FUJIMOTO CO., LTD., priority 2018, dated 2022).
# Key:
# Assay type in all cases: cell-based
# REC-1 cells = test: Human mantle cell lymphoma cell line REC-1 proliferation suppression test; settings: Rec1, 72 h, compound 10 μM, 3 days, WST-8, read-out: cell survival rate (% of control) REC-1
# Summary of the method: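 Cells were plated at 1.3×10^5 cells/mL, and the next day test compound was added at a final 10 μM, with DMSO-only medium as control. After 3 days at 37° C under 5% CO2, proliferation was measured with WST-8.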
# TNF-α production = test: Human TNF-α production suppression test (LPS-stimulated peripheral blood mononuclear cells, ELISA); settings: PBMC, compound 10 μg/mL, 24 hr, control well = 100, read-out: TNF-α production suppressive rate (%)
# Protocol: Example 50: Human TNF-α Production Suppression Test
# Peripheral blood of a healthy adult was collected in a vacuum blood collection tube (Terumo, containing EDTA/2Na), and then diluted two-fold with an equal volume of OTSUKA NORMAL SALINE (Otsuka Pharmaceutical Co., Ltd.). The diluted blood was mixed with Lymphoprep (AXIS-SHIELD) in half the volume of the diluted blood, dispensed into a 15 mL conical tube, and centrifuged at room temperature for 20 min (2,100 rpm). The mononuclear cells accumulated at the interface between Lymphoprep and plasma was transferred to a 50 mL conical tube, diluted with OTSUKA NORMAL SALINE, and the mononuclear cells suspension was centrifuged at room temperature for 10 min (1,150 rpm) and then the supernatant was removed. The mononuclear cells fraction obtained as a precipitate was suspended in an appropriate amount of 10% fetal calf serum (Thermo Fisher Scientific)-containing RPMI1640 medium (Thermo Fisher Scientific, hereinafter abbreviated as medium A), and diluted as appropriate with 0.4% trypan blue solution (Sigma-Aldrich Co. LLC.). The number of viable cells was counted with a hemocytometer (ERMA INC.). It was diluted with medium A such that the value obtained was 5×10^5 cells/mL. On the other hand, 75 μL of medium A, 5 μL of 0.4 mg/mL test compound solution (DMSO solution 10-fold diluted with medium A), and 20 μL of 10 μg/mL lipopolysaccharide (Sigma-Aldrich Co. LLC.) solution (diluted with medium A) were each added in advance to the same well of a Falcon 96-well flat bottom plate (Corning Incorporated), and the above-mentioned cell suspension was dispensed at 0.1 mL/well. 5 μL of DMSO diluted 10-fold with medium A was added to the control well instead of the compound solution. After culturing at 37° C. in a 5% CO2 stream for 24 hr, the culture solution was centrifuged at 4° C., 1,000 rpm for 3 min and the supernatant was recovered. The content of TNF-α in the supernatant was measured using an ELISA kit (Peprotech) according to a conventional method. The amount of TNF-α produced in the well containing the test compound was determined with the amount of TNF-α produced in the control well as 100, and the suppression rate was calculated for each test.
# Kasumi-7 cells = test: Human acute lymphoblastic leukemia cell line Kasumi-7 proliferation suppression test; settings: 72 h, compound 10 μM, 3 days, WST-8, read-out: cell survival rate (% of control) Kasumi-7
# Summary of the method: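 Cells seeded at 1.3×10^5 cells/mL in RPMI1640 with 20% FCS, cultured overnight at 37°C, 5% CO2, then treated with compound at 10 μM final; DMSO vehicle control. Proliferation read by WST-8 after 3 days' culture.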
# [1] = system: human peripheral blood mononuclear cells (PBMC); test: Cytotoxicity test using human peripheral blood mononuclear cells (PBMC); settings: compound 10 μg/mL, LPS, 24 hr, WST-1 or WST-8
# Protocol: Example 56: Cytotoxicity Test Using Human Peripheral Blood Mononuclear Cells (PBMC)
# Peripheral blood of a healthy adult was collected in a Venoject II vacuum blood collection tube (Terumo, containing EDTA/2Na), and then diluted two-fold with an equal volume of OTSUKA NORMAL SALINE (Otsuka Pharmaceutical Co., Ltd.). The diluted blood was mixed with Lymphoprep (AXIS-SHIELD) in half the volume of the diluted blood, dispensed into a 15 mL conical tube, and centrifuged at room temperature for 20 min (2,100 rpm). The mononuclear cells accumulated at the interface between Lymphoprep and plasma was transferred to a 50 mL conical tube, diluted with OTSUKA NORMAL SALINE, and the mononuclear cells suspension was centrifuged at room temperature for 10 min (1,150 rpm) and then the supernatant was removed. The mononuclear cells fraction obtained as a precipitate was suspended in an appropriate amount of medium A, and diluted as appropriate with 0.4% trypan blue solution (Sigma-Aldrich Co. LLC.). The number of viable cells was counted with a hemocytometer (ERMA INC.). It was diluted with medium A such that the value obtained was 5×10^5 cells/mL. On the other hand, 37.5 μL of medium A, 2.5 μL of 0.4 mg/mL test compound solution (DMSO solution 10-fold diluted with medium A), and 10 μL of 10 μg/mL lipopolysaccharide (Sigma-Aldrich Co. LLC.) solution (diluted with medium A) were each added in advance to the same well of a Falcon 96-well flat bottom plate (Corning Incorporated), and the above-mentioned cell suspension was dispensed at 50 μL/well (final concentration of test compound 10 μg/mL). 2.5 μL of DMSO diluted 10-fold with medium A was added to the control well instead of the compound solution. After culturing at 37° C. in a 5% CO2 stream for 24 hr, the cell survival rate was measured using WST-1 (DOJINDO LABORATORIES) or WST-8 kit (KISHIDA CHEMICAL Co., Ltd.) and according to each instruction manual attached thereto.
Compound,viability at 10 µM (REC-1 cells) [%],inhibition at 10 µg/mL (TNF-α production) [%],viability at 10 µM (Kasumi-7 cells) [%],cell survival rate (% of control) PBMC [1]
"O=C1CCC(n2cc(-c3cscc3OCc3cc4ccccc4s3)nn2)C(=O)N1 (stereo not drawn) [compound 47, 3-{4-[4-(benzo[b]thiophen-2-ylmethoxy)thiophen-3-yl]-1H-1,2,3-triazol-1-yl}piperidine-2,6-dione]",33,63,56,106 % of control
"O=C1CCC(n2cc(-c3ccc(Cl)s3)nn2)C(=O)N1 (stereo not drawn) [compound 11, 3-[4-(5-chlorothiophen-2-yl)-1H-1,2,3-triazol-1-yl]piperidine-2,6-dione]",56,81,78,115 % of control
"CCOc1cc(-c2cn(C3CCC(=O)NC3=O)nn2)cs1 (stereo not drawn) [compound 24, 3-[4-(5-ethoxythiophen-3-yl)-1H-1,2,3-triazol-1-yl]piperidine-2,6-dione]",46,75,72,91 % of control
"O=C1CCC(n2cc(-c3cccs3)nn2)C(=O)N1 (stereo not drawn) [compound 3, 3-[4-(thiophen-2-yl)-1H-1,2,3-triazol-1-yl]piperidine-2,6-dione]",65,59,81,89 % of control
"Cc1cc(-c2cn(C3CCC(=O)NC3=O)nn2)cs1 (stereo not drawn) [compound 6, 3-[4-(5-methylthiophen-3-yl)-1H-1,2,3-triazol-1-yl]piperidine-2,6-dione]",52,67,72,96 % of control
"O=C1CCC(n2cc(-c3cscc3OCC3CCCCC3)nn2)C(=O)N1 (stereo not drawn) [compound 30, 3-{4-[4-(cyclohexylmethoxy)thiophen-3-yl]-1H-1,2,3-triazol-1-yl}piperidine-2,6-dione]",49,79,62,70 % of control
"CCCOc1cscc1-c1cn(C2CCC(=O)NC2=O)nn1 (stereo not drawn) [compound 21, 3-[4-(4-propoxythiophen-3-yl)-1H-1,2,3-triazol-1-yl]piperidine-2,6-dione]",63,30,79,116 % of control
"O=C1CCC(n2cc(-c3cc(Br)sc3Br)nn2)C(=O)N1 (stereo not drawn) [compound 13, 3-[4-(2,5-dibromothiophen-3-yl)-1H-1,2,3-triazol-1-yl]piperidine-2,6-dione]",100,35,93,132 % of control
"Cl.O=C1CCC(n2cc(-c3cscc3OCc3ccc(CN4CCCC4)cc3)nn2)C(=O)N1 (stereo not drawn) [compound 41, 3-(4-{4-[4-(pyrrolidin-1-ylmethyl)benzyloxy]thiophen-3-yl}-1H-1,2,3-triazol-1-yl)piperidine-2,6-dione hydrochloride]",20,93,26,110 % of control
"COc1cscc1-c1cn(C2CCC(=O)NC2=O)nn1 (stereo not drawn) [compound 19, 3-[4-(4-methoxythiophen-3-yl)-1H-1,2,3-triazol-1-yl]piperidine-2,6-dione]",4,83,24,99 % of control
"O=C1CCC(n2cc(-c3ccsc3)nn2)C(=O)N1 (stereo not drawn) [compound 2, 3-[4-(thiophen-3-yl)-1H-1,2,3-triazol-1-yl]piperidine-2,6-dione]",36,98,68,100 % of control
"Cc1cscc1-c1cn(C2CCC(=O)NC2=O)nn1 (stereo not drawn) [compound 7, 3-[4-(4-methylthiophen-3-yl)-1H-1,2,3-triazol-1-yl]piperidine-2,6-dione]",44,73,69,101 % of control
